Active and inactive are the calls of the source. No cut-off for these calls is given here. Where a SMILES comes first, the peptide text is derived from it. The star is where a group is joined. X1 = O=[N+]([O-])c1ccc(OCCOCCOCCOCCOCCOCCN*)c([N+](=O)[O-])c1; FITC = O=C1OC2(c3ccc(O)cc3Oc3cc(O)ccc32)c2ccc(NC(=S)*)cc21; X2 = O=[N+]([O-])c1ccc(OCCOCCOCCN*)c([N+](=O)[O-])c1; X3 = O=[N+]([O-])c1ccc(OCCN*)c([N+](=O)[O-])c1; Ahx = NCCCCCC(=O)O
How the values were obtained:
[1] = Binding affinity to CM5 sensor chip immobilized human full-length wild type FGFR1c assessed as dissociation constant by SPR analysis
NCI-H1581 [2] = assay: Binding affinity to FGFR1c in human NCI-H1581 cells assessed as fluorescence intensity at 10 uM by antibody recruiting based flow cytometry; type: cell-based
L6 [3] = assay: Binding affinity to FGFR1c in rat L6 cells assessed as increase in green fluorescence signal incubated for 1 hr by Alexa-488 staining based confocal fluorescence microscopic analysis; type: cell-based
NCI-H1581 [4] = assay: Binding affinity to FGFR1c in human NCI-H1581 cells assessed as fold change in fluorescence intensity at 10 uM by antibody recruiting based flow cytometry relative to Pep1; type: cell-based
L6 [5] = assay: Induction of apoptosis in FGF2-induced rat L6 cells stably expressing human full-length FGFR1c assessed as upregulation of cleaved caspase-3 expression at 50 uM incubated for 24 hrs by Western blotting analysis; type: functional, cell-based
NCI-H1581 [6] = assay: Induction of cell lysis in human NCI-H1581 cells at 1 uM incubated for 1 hr by complement dependent cytotoxicity based CCK-8 assay relative to control; type: functional
L6 [7] = assay: Binding affinity to human full-length wild type FGFR1c stably expressed in rat L6 cells assessed as fluorescence intensity at 10 uM by antibody recruiting based flow cytometry; type: cell-based
NCI-H1581 [8] = assay: Binding affinity to FGFR1c in human NCI-H1581 cells assessed as increase in green fluorescence signal incubated for 1 hr by Alexa-488 staining based confocal fluorescence microscopic analysis; type: cell-based
L6 [9] = assay: Antiproliferative activity against FGF2-induced rat L6 cells stably expressing human full-length FGFR1c assessed as inhibition of cell growth incubated for 36 hrs by CCK-8 assay; type: functional, cell-based
L6 [10] = assay: Antiproliferative activity against FGF2-induced rat L6 cells stably expressing human full-length FGFR1c assessed as inhibition of cell growth at 100 uM incubated for 36 hrs by CCK-8 assay relative to control; type: functional
L6 [11] = assay: Binding affinity to human full-length wild type FGFR1c stably expressed in rat L6 cells assessed as fold change in fluorescence intensity at 10 uM by antibody recruiting based flow cytometry relative to Pep1; type: cell-based
L6 [12] = assay: Induction of cell lysis in rat L6 cells at 1 uM incubated for 1 hr by complement dependent cytotoxicity based CCK-8 assay relative to control; type: functional
L6 [13] = assay: Induction of apoptosis in FGF2-induced rat L6 cells stably expressing human full-length FGFR1c assessed as downregulation of BCL-2 expression at 50 uM incubated for 24 hrs by Western blotting analysis; type: functional, cell-based
NCI-H1581 [14] = assay: Binding affinity to FGFR1c in human NCI-H1581 cells assessed as increase in fluorescence signal by antibody recruiting based flow cytometry; type: cell-based
L6 [15] = assay: Binding affinity to human full-length wild type FGFR1c stably expressed in rat L6 cells assessed as increase in fluorescence signal by antibody recruiting based flow cytometry; type: cell-based
L6 [16] = assay: Induction of apoptosis in FGF2-induced rat L6 cells stably expressing human full-length FGFR1c assessed as upregulation of cleaved PARP expression at 50 uM incubated for 24 hrs by Western blotting analysis; type: functional, cell-based
L6 [17] = assay: Binding affinity to human full-length wild type FGFR1c stably expressed in rat L6 cells assessed as increase in green fluorescence signal incubated for 1 hr by Alexa-488 staining based confocal fluorescence microscopic analysis; type: cell-based
L6 [18] = assay: Induction of cell lysis in rat L6 cells stably expressing human full-length FGFR1c at 1 uM incubated for 1 hr by complement dependent cytotoxicity based CCK-8 assay relative to control; type: functional
[19] = Tmax in immunized Sprague-Dawley rat at 1.5 mg/kg,SC administration measured upto 24 hrs by fluorescence based microplate reader assay; type: ADME, organism-based; conditions: in vivo
L6 [20] = assay: Binding affinity to human full-length wild type FGFR1c stably expressed in rat L6 cells assessed as increase in green fluorescence signal at 2 uM by DAPI staining based confocal […] microscopic analysis; type: cell-based
L6 [21] = assay: Induction of apoptosis in FGF2-induced rat L6 cells stably expressing human full-length FGFR1c assessed as upregulation of cleaved caspase-3 expression incubated for 24 hrs by Western blotting analysis; type: functional, cell-based
[22] = Cmax in immunized Sprague-Dawley rat at 1.5 mg/kg,SC administration measured upto 24 hrs by fluorescence based microplate reader assay; type: ADME, organism-based; conditions: in vivo
[23] = Half life in immunized Sprague-Dawley rat at 1.5 mg/kg,SC administration measured upto 24 hrs by fluorescence based microplate reader assay; type: ADME, organism-based; conditions: in vivo
L6 [24] = assay: Binding affinity to FGFR1c in rat L6 cells assessed as increase in green fluorescence signal at 2 uM by DAPI staining based confocal […] microscopic analysis; type: cell-based
[25] = AUC in immunized Sprague-Dawley rat at 1.5 mg/kg,SC administration measured upto 24 hrs by fluorescence based microplate reader assay; type: ADME, organism-based; conditions: in vivo
NCI-H1581 [26] = assay: Antitumor activity against human NCI-H1581 cells xenografted BALB/c mouse model assessed as inhibition of tumor growth at 20 mg/kg,SC administrated once daily for 12 days relative to control; type: functional; conditions: NCI-H1581, 288 h, time 12 day
L6 [27] = assay: Induction of apoptosis in FGF2-induced rat L6 cells stably expressing human full-length FGFR1c assessed as upregulation of cleaved PARP expression incubated for 24 hrs by Western blotting analysis; type: functional, cell-based

Compound	Kd [1]	Flu intensity (NCI-H1581 [2])	Activity (L6 [3])	fold change (FC) (NCI-H1581 [4])	Activity (L6 [5])	Activity (NCI-H1581 [6])	Flu intensity (L6 [7])	Activity (NCI-H1581 [8])	Activity (L6 [9])	inhibition at 100 µM (L6 [10])	fold change (FC) (L6 [11])	Activity (L6 [12])	Activity (L6 [13])	Activity (NCI-H1581 [14])	Activity (L6 [15])	Activity (L6 [16])	Activity (L6 [17])	Activity (L6 [18])	Activity (L6 [20])	also measured
CC(C)C[C@H](NC(=O)[C@H](C)NC(=O)[C@@H](NC(=O)[C@H](Cc1ccc(O)cc1)NC(=O)[C@H](Cc1c[nH]c2ccccc12)NC(=O)[C@H](CO)NC(=O)[C@H](CO)NC(=O)[C@H](Cc1ccc(O)cc1)NC(=O)[C@H](CCCCN)NC(=O)[C@H](CCCNC(=N)N)NC(=O)[C@H](CO)NC(=O)[C@H](CCCNC(=N)N)NC(=O)[C@@H](N)Cc1ccc(O)cc1)C(C)C)C(=O)N[C@@H](CCCCN)C(=O)N[C@@H](CCCNC(=N)N)C(=O)N[C@@H](CC(C)C)C(=O)N1CCC[C@H]1C(=O)N[C@@H](CCC(=O)O)C(=O)N[C@H](C(=O)NCC(=O)NCC(=O)NCC(=O)NCCOc1ccc([N+](=O)[O-])cc1[N+](=O)[O-])[C@@H](C)O (H-YRSRKYSSWYVALKRLPETGGG-X3)	5.95 µM	3.5 10^3No_unit	inactive	22.4	Active	35.8%	1.6 10^4No_unit	Active	Dose-Dependent Effect	100%	180	inactive	Active	Dose-Dependent Effect	Dose-Dependent Effect	Active	Active	29.3%	–	–
CC(C)C[C@H](NC(=O)[C@H](CO)NC(=O)[C@H](C)NC(=O)[C@H](Cc1c[nH]c2ccccc12)NC(=O)[C@H](CCCCN)NC(=O)[C@H](CCCCN)NC(=O)[C@H](CCCNC(=N)N)NC(=O)[C@@H](NC(=O)[C@H](CO)NC(=O)[C@H](CCCNC(=N)N)NC(=O)[C@@H](N)CCCNC(=N)N)C(C)C)C(=O)N[C@@H](Cc1ccc(O)cc1)C(=O)N[C@@H](Cc1ccc(O)cc1)C(=O)N[C@@H](CO)C(=O)N[C@@H](Cc1ccc(O)cc1)C(=O)N[C@@H](CC(C)C)C(=O)N1CCC[C@H]1C(=O)N[C@@H](CCC(=O)O)C(=O)N[C@H](C(=O)NCC(=O)NCC(=O)NCC(=O)NCCOCCOCCOCCOCCOCCOc1ccc([N+](=O)[O-])cc1[N+](=O)[O-])[C@@H](C)O (H-RRSVRKKWASLYYSYLPETGGG-X1)	–	–	–	–	–	–	–	–	–	–	–	–	–	–	–	–	inactive	–	–	–
H-YRSRKYSSWYVALKRLPET-NH2	1.6 µM	–	–	–	–	–	–	–	Dose-Dependent Effect	100%	–	–	–	–	–	–	–	–	Active	Tmax [19]: 0.58 h; Activity (L6 [21]): Dose-Dependent Effect; Cmax [22]: 205 ng/mL; half-life [23]: 2.12 h; Activity (L6 [24]): inactive; AUC at 24 h [25]: 711 ng·h/mL; inhibition in vivo at 20 mg/kg (NCI-H1581 [26]): 44.2%; Activity (L6 [27]): Dose-Dependent Effect
CC(C)C[C@H](NC(=O)[C@H](CO)NC(=O)[C@H](C)NC(=O)[C@H](Cc1c[nH]c2ccccc12)NC(=O)[C@H](CCCCN)NC(=O)[C@H](CCCCN)NC(=O)[C@H](CCCNC(=N)N)NC(=O)[C@@H](NC(=O)[C@H](CO)NC(=O)[C@H](CCCNC(=N)N)NC(=O)[C@H](CCCNC(=N)N)NC(=O)CCCCCNC(=S)Nc1ccc2c(c1)C(=O)OC21c2ccc(O)cc2Oc2cc(O)ccc21)C(C)C)C(=O)N[C@@H](Cc1ccc(O)cc1)C(=O)N[C@@H](Cc1ccc(O)cc1)C(=O)N[C@@H](CO)C(=O)N[C@@H](Cc1ccc(O)cc1)C(N)=O ({FITC-Ahx}-RRSVRKKWASLYYSY-NH2)	–	–	–	–	–	–	–	–	–	–	–	–	–	–	–	–	–	–	inactive	–
CC(C)C[C@H](NC(=O)[C@H](C)NC(=O)[C@@H](NC(=O)[C@H](Cc1ccc(O)cc1)NC(=O)[C@H](Cc1c[nH]c2ccccc12)NC(=O)[C@H](CO)NC(=O)[C@H](CO)NC(=O)[C@H](Cc1ccc(O)cc1)NC(=O)[C@H](CCCCN)NC(=O)[C@H](CCCNC(=N)N)NC(=O)[C@H](CO)NC(=O)[C@H](CCCNC(=N)N)NC(=O)[C@@H](N)Cc1ccc(O)cc1)C(C)C)C(=O)N[C@@H](CCCCN)C(=O)N[C@@H](CCCNC(=N)N)C(=O)N[C@@H](CC(C)C)C(=O)N1CCC[C@H]1C(=O)N[C@@H](CCC(=O)O)C(=O)N[C@H](C(=O)NCC(=O)NCC(=O)NCC(=O)NCCOCCOCCOc1ccc([N+](=O)[O-])cc1[N+](=O)[O-])[C@@H](C)O (H-YRSRKYSSWYVALKRLPETGGG-X2)	5.37 µM	0.5 10^3No_unit	inactive	3.6	Active	31.7%	0.3 10^4No_unit	Active	Dose-Dependent Effect	100%	33.4	inactive	Active	Dose-Dependent Effect	Dose-Dependent Effect	Active	Active	25.9%	–	–
